Results as given in patent US10765114B2, “4-amino-6-(pyridyl and 2-substitutedphenyl)-picolinates and 6-amino-2-(pyridyl and 2-substitutedphenyl)-pyrimidine-4-carboxylates and their use as herbicides” (Dow AgroSciences LLC, priority 2013, dated 2020).

How the values were obtained:
Assay in all cases: Post-Emergent Test III (Wheat and Barley)
[1] = system: KCHSC (kochia); assay type: in vivo, Kochia scoparia; conditions: for pest or weed control at 17.5 g/ha / pest or weed control at 35 g/ha / pest or weed control at 70 g/ha: Bassia scoparia, post-emergence, 504 h, KCHSC kochia (Kochia scoparia), post-emergent, read-out: Visual Growth Reduction (%) 21 Days After Application, KCHSC; for pest or weed control at 17.5 g/ha: 17.5 g ai/ha; for pest or weed control at 35 g/ha: 35 g ai/ha; for pest or weed control at 70 g/ha: 70 g ai/ha; for GR50, KCHSC: growth reduction of 50%; for GR50, KCHSC / GR80, KCHSC / GR90, KCHSC: probit analysis, 21 days; for GR80, KCHSC: growth reduction of 80%; for GR90, KCHSC: growth reduction of 90%
How it was run: (§1)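 Injury was rated visually on a 0 to 100 percent scale 21 days after treatment, relative to untreated plants, and probit analysis of multiple dose rates gave growth-reduction values. Plants at the second or third true leaf stage had been track-sprayed at 187 L/ha.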

[2] = system: LAMPU (purple deadnettle); assay type: in vivo, Lamium purpureum; conditions: for Visual Growth Reduction (%) 21 Days After Application, LAMPU: LAMPU purple deadnettle (Lamium purpureum), post-emergent; for GR50, LAMPU: growth reduction of 50%; for GR50, LAMPU / GR80, LAMPU / GR90, LAMPU: probit analysis, 21 days; for GR80, LAMPU: growth reduction of 80%; for GR90, LAMPU: growth reduction of 90%
Experimental: (§2) Seeds of the desired test plant species were planted in Sun Gro MetroMix® 306 planting mixture, which typically has a pH of 6.0 to 6.8 and an organic matter content of about 30 percent, in plastic pots with a surface area of 103.2 square centimeters (cm^2). When required to ensure good germination and healthy plants, a fungicide treatment and/or other chemical or physical treatment was applied. The plants were grown for 7-36 days in a greenhouse with an approximate 14 h photoperiod which was maintained at about 18° C. during the day and 17° C. during the night. Nutrients and water were added on a regular basis and supplemental lighting was provided with overhead metal halide 1000-Watt lamps as necessary. The plants were employed for testing when they reached the second or third true leaf stage.
(§3) A weighed amount, determined by the highest rate to be tested, of each test compound was placed in a 25 mL glass vial and was dissolved in 4 mL of a 97:3 v/v mixture of acetone and DMSO to obtain concentrated stock solutions. […] The concentrated stock solutions obtained were diluted with 20 mL of an aqueous mixture containing acetone, water, isopropyl alcohol, DMSO, Agri-Dex crop oil concentrate, and X-77 surfactant in a 48:39:10:1.5:1.5:0.02 v/v ratio to obtain spray solutions containing the highest application rates. Additional application rates were obtained by serial dilution of 12 mL of the high rate solution into a solution containing 2 mL of 97:3 v/v mixture of acetone and DMSO and 10 mL of an aqueous mixture containing acetone, water, isopropyl alcohol, DMSO, Agri-Dex crop oil concentrate, and X-77 surfactant in a 48:39:10:1.5:1.5:0.02 v/v ratio to obtain ½×, ¼×, ⅛× and 1/16× rates of the high rate. Compound requirements are based upon a 12 mL application volume at a rate of 187 liters per hectare (L/ha). Formulated compounds were applied to the plant material with an overhead Mandel track sprayer equipped with 8002E nozzles calibrated to deliver 187 L/ha over an application area of 0.503 square meters at a spray height of 18 inches (43 cm) above the average plant canopy height. Control plants were sprayed in the same manner with the solvent blank.
(§4) The treated plants and control plants were placed in a greenhouse as described above and watered by subirrigation to prevent wash-off of the test compounds. After 21 dAYS, the condition of the test plants as compared with that of the untreated plants was determined visually and scored on a scale of 0 to 100 percent where 0 corresponds to no injury and 100 corresponds to complete kill and presented as indicated in Table A.
(§5) By applying the well-accepted probit analysis as described by J. Berkson in Journal of the American Statistical Society, 48, 565 (1953) and by D. Finney in “Probit Analysis” Cambridge University Press (1952), herbicidal injury of a specific compound at various rates can be used to calculate GR10, GR20, GR50, GR80 and GR90 values, which are defined as growth reduction factors that correspond to the effective dose of herbicide required to provide plant growth reduction (GR) of 10 percent, 20 percent, 50 percent, 80 percent and 90 percent, respectively. Probit analysis was applied to data collected from multiple dose rates of individual compounds utilizing the procedures explained in the following examples. The analysis of those dose rates is captured in the following tables.

[3] = system: BRSSS; assay type: in vivo; conditions: for Visual Growth Reduction (%) 21 Days After Application, BRSSS: BRSSS oil seed rape (Brassica napus), post-emergent; for GR50, BRSSS: growth reduction of 50%; for GR50, BRSSS / GR80, BRSSS / GR90, BRSSS: probit analysis, 21 days; for GR80, BRSSS: growth reduction of 80%; for GR90, BRSSS: growth reduction of 90%
How it was run: as §1

[4] = system: TRZSS; assay type: in vivo; conditions: crop; for Visual Growth Reduction (%) 21 Days After Application, TRZSS: TRZSS wheat (Triticum aestivum), post-emergent; for GR10, TRZSS / GR20, TRZSS: TRZSS wheat, probit analysis, 21 days; for GR10, TRZSS: growth reduction of 10%; for GR20, TRZSS: growth reduction of 20%
How it was run: as §1

[5] = system: HORSS; assay type: in vivo; conditions: crop; for Visual Growth Reduction (%) 21 Days After Application, HORSS: HORSS barley (Hordeum vulgare), post-emergent; for GR10, HORSS / GR20, HORSS: HORSS barley, probit analysis, 21 days; for GR10, HORSS: growth reduction of 10%; for GR20, HORSS: growth reduction of 20%
How it was run: as §1

[6] = system: VERPE (Persian speedwell); assay type: in vivo, Veronica persica; conditions: for Visual Growth Reduction (%) 21 Days After Application, VERPE: VERPE bird's-eye speedwell (Veronica persica), post-emergent; for GR50, VERPE: growth reduction of 50%; for GR50, VERPE / GR80, VERPE / GR90, VERPE: probit analysis, 21 days; for GR80, VERPE: growth reduction of 80%; for GR90, VERPE: growth reduction of 90%
Experimental: as §2, §3, §4, §5

[7] = system: SASKR (Russian thistle); assay type: in vivo, Salsola tragus; conditions: for Visual Growth Reduction (%) 21 Days After Application, SASKR: SASKR Russian thistle (Salsola iberica), post-emergent; for GR50, SASKR: growth reduction of 50%; for GR50, SASKR / GR80, SASKR / GR90, SASKR: probit analysis, 21 days; for GR80, SASKR: growth reduction of 80%; for GR90, SASKR: growth reduction of 90%
Experimental: as §2, §3, §4, §5

Row | SMILES | pest or weed control at 17.5 g/ha [1] | pest or weed control at 35 g/ha [1] | pest or weed control at 70 g/ha [1] | GR50, KCHSC [1] | GR80, KCHSC [1] | GR90, KCHSC [1] | Visual Growth Reduction (%) 21 Days After Application, LAMPU ([2]; 17.5 g ai/ha) | Visual Growth Reduction (%) 21 Days After Application, LAMPU ([2]; 35 g ai/ha) | Visual Growth Reduction (%) 21 Days After Application, LAMPU ([2]; 70 g ai/ha) | GR50, LAMPU [2] | GR80, LAMPU [2] | GR90, LAMPU [2] | Visual Growth Reduction (%) 21 Days After Application, BRSSS ([3]; 17.5 g ai/ha) | Visual Growth Reduction (%) 21 Days After Application, BRSSS ([3]; 35 g ai/ha) | Visual Growth Reduction (%) 21 Days After Application, BRSSS ([3]; 70 g ai/ha) | GR50, BRSSS [3] | GR80, BRSSS [3] | GR90, BRSSS [3] | Visual Growth Reduction (%) 21 Days After Application, TRZSS ([4]; 17.5 g ai/ha) | Visual Growth Reduction (%) 21 Days After Application, TRZSS ([4]; 35 g ai/ha) | other results
1 | COC(=O)c1nc(-c2ccc(Br)nc2)c(F)c(N)c1Cl [Compound 22, methyl 4-amino-6′-bromo-5-chloro-3-fluoro-[2,3′-bipyridine]-6-carboxylate] | 95 to 100% | 95 to 100% | 95 to 100% | 3 g ai/ha | 8 g ai/ha | 14 g ai/ha | A (95-100) | A (95-100) | A (95-100) | 1 g ai/ha | 6 g ai/ha | 11 g ai/ha | D (60-74) | B (85-94) | B (85-94) | 4 g ai/ha | 20 g ai/ha | 46 g ai/ha | C (75-84) | B (85-94) | Visual Growth Reduction (%) 21 Days After Application, TRZSS ([4]; 70 g ai/ha): B (85-94); GR10, TRZSS [4]: 1 g ai/ha; GR20, TRZSS [4]: 1 g ai/ha; Visual Growth Reduction (%) 21 Days After Application, HORSS ([5]; 17.5 g ai/ha): B (85-94); Visual Growth Reduction (%) 21 Days After Application, HORSS ([5]; 35 g ai/ha): B (85-94); Visual Growth Reduction (%) 21 Days After Application, HORSS ([5]; 70 g ai/ha): A (95-100); GR10, HORSS [5]: 1 g ai/ha; GR20, HORSS [5]: 1 g ai/ha; Visual Growth Reduction (%) 21 Days After Application, VERPE ([6]; 17.5 g ai/ha): D (60-74); Visual Growth Reduction (%) 21 Days After Application, VERPE ([6]; 35 g ai/ha): C (75-84); Visual Growth Reduction (%) 21 Days After Application, VERPE ([6]; 70 g ai/ha): A (95-100); GR50, VERPE [6]: 9 g ai/ha; GR80, VERPE [6]: 28 g ai/ha; GR90, VERPE [6]: 50 g ai/ha; Visual Growth Reduction (%) 21 Days After Application, SASKR ([7]; 17.5 g ai/ha): C (75-84); Visual Growth Reduction (%) 21 Days After Application, SASKR ([7]; 35 g ai/ha): C (75-84); Visual Growth Reduction (%) 21 Days After Application, SASKR ([7]; 70 g ai/ha): B (85-94); GR50, SASKR [7]: 5 g ai/ha; GR80, SASKR [7]: 36 g ai/ha; GR90, SASKR [7]: 95 g ai/ha
2 | Cc1c(-c2cc(N)c(Cl)c(C(=O)O)n2)ccc(Cl)c1Cl [Compound 28] | 75 to 84% | 75 to 84% | 95 to 100% | 3 g ai/ha | 21 g ai/ha | 54 g ai/ha | A (95-100) | A (95-100) | A (95-100) | 1 g ai/ha | 1 g ai/ha | 1 g ai/ha | B (85-94) | B (85-94) | A (95-100) | 1 g ai/ha | 5 g ai/ha | 18 g ai/ha | G (0-29) | F (30-44) | Visual Growth Reduction (%) 21 Days After Application, TRZSS ([4]; 70 g ai/ha): E (45-59); GR10, TRZSS [4]: 16 g ai/ha; GR20, TRZSS [4]: 25 g ai/ha; Visual Growth Reduction (%) 21 Days After Application, HORSS ([5]; 17.5 g ai/ha): G (0-29); Visual Growth Reduction (%) 21 Days After Application, HORSS ([5]; 35 g ai/ha): F (30-44); Visual Growth Reduction (%) 21 Days After Application, HORSS ([5]; 70 g ai/ha): F (30-44); GR10, HORSS [5]: 3 g ai/ha; GR20, HORSS [5]: 13 g ai/ha; Visual Growth Reduction (%) 21 Days After Application, VERPE ([6]; 17.5 g ai/ha): G (0-29); Visual Growth Reduction (%) 21 Days After Application, VERPE ([6]; 35 g ai/ha): F (30-44); Visual Growth Reduction (%) 21 Days After Application, VERPE ([6]; 70 g ai/ha): E (45-59); GR50, VERPE [6]: 63 g ai/ha; GR80, VERPE [6]: 111 g ai/ha; GR90, VERPE [6]: >140 g ai/ha; Visual Growth Reduction (%) 21 Days After Application, SASKR ([7]; 17.5 g ai/ha): C (75-84); Visual Growth Reduction (%) 21 Days After Application, SASKR ([7]; 35 g ai/ha): B (85-94); Visual Growth Reduction (%) 21 Days After Application, SASKR ([7]; 70 g ai/ha): A (95-100); GR50, SASKR [7]: 2 g ai/ha; GR80, SASKR [7]: 17 g ai/ha; GR90, SASKR [7]: 47 g ai/ha
